Measured values from ChEMBL document CHEMBL3044610, “Khayanolides, rearranged phragmalin limonoid antifeedants from Khaya senegalensis” (Tetrahedron, 2001).
The source made the active and inactive calls. The rule behind the calls is not given here.

Experiments:
Type in all cases: functional, organism-based
Spodoptera littoralis [1] = test: Antifeedant activity against third-instar larva of Spodoptera littoralis fed on compound-treated Chinese cabbage leaf at 300 ppm by leaf-disk method
Spodoptera littoralis [2] = test: Antifeedant activity against third-instar larva of Spodoptera littoralis fed on compound-treated Chinese cabbage leaf at 500 ppm by leaf-disk method
Spodoptera littoralis [3] = test: Antifeedant activity against third-instar larva of Spodoptera littoralis fed on compound-treated Chinese cabbage leaf at 1000 ppm by leaf-disk method

Row | Compound | Activity (Spodoptera littoralis [2]) | also measured
1 | CC1(C)C(=O)[C@@H]2C[C@@]34O[C@]2(O)[C@]2(COC(=O)C[C@@H]12)[C@H]3CC[C@]1(C)[C@H]4CC(=O)O[C@H]1c1ccoc1 | – | Activity (Spodoptera littoralis [1]): Active
2 | C=C1[C@@H]2CC[C@@]3(C)[C@H](c4ccoc4)OC(=O)C[C@]13O[C@H]1CC(=O)C(C)(C)[C@H](CC(=O)OC)[C@]12C | Active | –
3 | C=C1[C@@H]2CC[C@@]3(C)[C@H](c4ccoc4)OC(=O)C[C@]13O[C@H]1CC(=O)C(C)(C)[C@H](C(OC(C)=O)C(=O)OC)[C@]12C (some centres not stated) | Active | –
4 | COC(=O)[C@H](O)[C@H]1[C@]2(C)C[C@]3(O)[C@H](C(=O)[C@H]2O)[C@]24O[C@]25CC(=O)O[C@H](c2ccoc2)[C@]5(C)CC[C@@H]4[C@]13C | – | Activity (Spodoptera littoralis [1]): Active
5 | COC(=O)[C@H](O)[C@H]1[C@@]2(C)C[C@]3(O)[C@H]4[C@@H](O[C@]56CC(=O)O[C@H](c7ccoc7)[C@]5(C)CC[C@H]([C@]13C)[C@]46O)[C@H]2O | Active | –
6 | COC(=O)[C@H](O)[C@H]1[C@]2(C)C[C@]3(O)[C@@H](C(=O)[C@H]2O)[C@]2(O)C4=CC(=O)O[C@@H](c5ccoc5)[C@]4(C)CC[C@@H]2[C@]13C | – | Activity (Spodoptera littoralis [3]): Active
7 | C=C1[C@@H]2CC[C@@]3(C)[C@H](c4ccoc4)OC(=O)C[C@]13O[C@H]1CC(=O)C(C)(C)[C@H](C(O)C(=O)OC)[C@]12C (some centres not stated) | Active | –
